{
  "source": "patent US20130047297A1",
  "about": "“POLYNUCLEOTIDE MOLECULES FOR GENE REGULATION IN PLANTS” (priority 2010, published 2013)",
  "key": {"[1]": {"system": "phytoene desaturase (PDS) gene in lettuce (Lactuca sativa)", "assay": "Topical PDS ssDNA on lettuce, bleaching (Example 24)", "assay_type": "in vivo", "conditions": "8 nanomoles polynucleotide per plant (mixture: 2 nanomoles each); observed at 4", "method": "Lettuce variety LS49 “Green Tower” was used in the assays. Two fully expanded leaves of each plant were dipped into a freshly made 0.1% Silwet L-77 in double-distilled water solution for a few seconds. The leaves were allowed to dry for 15-30 minutes. Each plant was then treated by applying 20 microliters ssDNA solution to the top surface of two Silwet-treated leaves (total 40 microliters per plant). Table 9 lists the assay conditions used and the observed bleaching of plants topically treated with ssDNA polynucleotides.\nThe assays were repeated with 2 or 4 nanomoles ssDNA applied per plant.\nThe assays were repeated using each individual anti-sense ssDNAs (“HL287”, SEQ ID NO:55; “HL288”, SEQ ID NO:56; “HL289”, SEQ ID NO:57; and “HL290”, SEQ ID NO:58) with 8 nanomoles polynucleotide applied per plant; positive control plants were treated with a mixture of the four individual anti-sense ssDNAs at 2 nanomoles each (for a total of 8 nanomoles polynucleotide applied per plant) and negative control plants were treated only with buffer."}, "endogenous EPSPS": {"system": "endogenous EPSPS", "assay": "EPSPS mRNA, EPSPS protein and shikimate in detached leaves after anti-sense ssDNA petiole uptake (Example 9)", "parameters": "species or system Amaranthus palmeri", "conditions": "for increasing glyphosate efficacy, shikimate accumulation: 50 microgram/mL glyphosate; for suppressing levels of EPSPS mRNA and protein: 48 h incubation, #1 5 microM, #6 5 microM each (20 microM total), compared with other treatments", "method": "Petioles of detached leaves of glyphosate-resistant Palmer amaranth were placed in 200 mM sucrose solution with oligonucleotides according to the treatments listed in Table 2. Control leaves were permeated with the anti-sense control (SEQ ID NO:14), and additionally treated with or without 50 micrograms/mL glyphosate. EPSPS mRNA, EPSPS protein, and shikimate levels were measured after 48 h incubation. To assess the effects of anti-sense ssDNA oligonucleotides on EPSPS mRNA, total leaf RNA was isolated and quantitative real-time RT-PCR was performed to compare EPSPS mRNA levels. To assess the effects of anti-sense ssDNA oligonucleotides on EPSPS protein, total leaf soluble protein was isolated, separated by SDS-PAGE, and EPSPS protein levels measured by Western blot using antibodies against maize EPSPS_TIPA. Effects of anti-sense ssDNA oligonucleotides on shikimate accumulation as an indication of suppression of EPSPS were assessed in two experiments: in experiment 1, the oligonucleotide-treated leaves were incubated with 50 microgram/mL glyphosate for an additional 48 h either by petiole uptake (control leaves were permeated with the anti-sense control (SEQ ID NO:14), and additionally treated with or without 50 micrograms/mL glyphosate); in experiment 2, leaf disc assays were performed on the oligonucleotide-treated leaves, and shikimate levels measured by HPLC (controls in this case were leaves that had not been treated with oligonucleotides but incubated with 50 microgram/mL glyphosate)."}, "[2]": {"system": "Nicotiana benthamiana phytoene desaturase", "assay": "Single PDS ssDNA oligonucleotide treatment, systemic silencing in organs and seed set (Example 12)", "assay_type": "in vivo", "method": "Four-week old tobacco (Nicotiana benthamiana) plants were used in all treatments. Two fully expanded leaves (one cotyledon, one true leaf) were conditioned by dipping into freshly made surfactant solution (0.1% Silwet L-77 in double-distilled water) for a few seconds and allowed to dry for 15-30 minutes. Twenty microliters of a single-stranded DNA (ssDNA) 22-mer oligonucleotide with the sequence […] (SEQ ID NO:39), corresponding to the nucleotides at positions 1099-1120 of Nicotiana benthamiana phytoene desaturase (SEQ ID NO:2) was applied as a 25 micromolar solution in 0.01% Silwet L-77 in 5 millimolar sodium phosphate buffer, pH 6.8 to the top surface of each conditioned leaf for a total of 40 microliters (1 nanomole oligonucleotide) per plant. Control plants were treated with the Silwet solution without the DNA oligonucleotide.\nFlowers of both control and ssDNA-treated plants were allowed to set seed. Seeds were collected from mature fruits, weighed, and allowed to germinate. Seed weights were identical (about 11 mg per 100 seeds) and seed morphology appeared similar between the ssDNA-treated and the control plants.\nIn a separate assay using a similar procedure, tobacco plants were conditioned by dipping in 0.1% Silwet L-77 in double-distilled water, allowed to dry for 15-30 minutes, and treated with the PDS ssDNA 22-mer (SEQ ID NO:39) applied as a 25 micromolar solution in 0.01% Silwet L-77 in 5 millimolar sodium phosphate buffer, pH 6.8 to the top surface of each conditioned leaf for a total of 40 microliters (1 nanomole oligonucleotide) per plant. Other plants were not conditioned with a surfactant treatment, but were treated only with 1 nanomole of the PDS ssDNA 22-mer (SEQ ID NO:39) applied either by infiltration with a needleless syringe (shown in FIG. 18B) or by hand application of drops to the leaf surface (not shown in FIG. 18B), and either as a 25 micromolar solution in 0.01% Silwet L-77 in 5 millimolar sodium phosphate buffer, pH 6.8 or as a 25 micromolar solution in 5 millimolar sodium phosphate buffer, pH 6.8 (without surfactant). Negative control plants were treated with the Silwet buffer solution without the DNA oligonucleotide. Results are depicted in FIG. 18B."}, "[3]": {"system": "detached leaves of glyphosate-resistant Palmer amaranth", "assay": "Petiole uptake of fluorescently labelled ssDNA oligonucleotide in detached leaves (Example 9)", "parameters": "species or system Amaranthus palmeri", "method": "Petioles of detached leaves of glyphosate-resistant Palmer amaranth were placed in 200 mM sucrose solution with fluorescently labelled ssDNA oligonucleotides (SEQ ID NO:15). Leaf images were taken by Bio-Rad PharosFX imager equipped with a 488 nm laser from 4 h up to 48 h after uptake through petiole. Leaves incubated with 200 mM sucrose alone served as control."}, "[4]": {"system": "phytoene desaturase (PDS) gene in tomato (Solanum lycopersicum)", "assay": "Topical PDS dsRNA on tomato (Example 25)", "assay_type": "in vivo", "conditions": "2.5 micromolar dsRNA, 40 microliters per plant", "excerpt": "A 201 nucleotide dsRNA polynucleotide with an anti-sense strand capable of hybridizing to the RNA encoded by the sequence […] […] […] AG (SEQ ID NO:60) which correspond to the nucleotides at positions 1724-1923 of the mRNA transcribed from the tomato PDS gene sequence (SEQ ID NO:59) was synthesized by RT PCR using oligonucleotide primers with the sequences […] (SEQ ID NO:61, sense primer) and […] (SEQ ID NO:62, anti-sense primer). A 2.5 micromolar dsRNA solution was made with the 201 nucleotide dsRNA polynucleotide (SEQ ID NO:60) in 0.01% Silwet L-77 in 5 millimolar sodium phosphate buffer, pH 6.8.\nThree-week old tomato seedlings were treated as follows. Two fully expanded leaves were dipped into a freshly made 0.1% Silwet L-77 solution in double-distilled water for a few seconds. The leaves were allowed to dry for 30 minutes to 1 hour. Each plant was then treated by applying 20 microliters dsRNA solution to the top surface of two Silwet-treated leaves (total 40 microliters per plant). Control plants were treated with buffer. The plants were kept in a growth chamber for observation. FIG. 30 depicts the systemic silencing of the target gene PDS as evidenced by bleaching of the dsRNA-treated plants 30 days after topical treatment."}, "[5]": {"system": "endogenous PDS, EPSPS, or RuBisCO genes from Nicotiana benthamiana", "assay": "PDS, EPSPS, RuBisCO anti-sense polynucleotides on Nicotiana benthamiana, plant height (Example 33)", "assay_type": "in vivo", "conditions": "PDS 25 nanomoles, EPSPS and RuBisCO 50 nanomoles of each per plant", "method": "Nicotiana benthamiana plants were treated using a procedure similar to that described in Example 12. Polynucleotide solution (or mixed polynucleotides in the case of EPSPS and RuBisCO) were prepared in 0.01% (v/v) Silwet L-77 and 2% (w/v) ammonium sulfate in 5 millimolar sodium phosphate, pH 6.8. Two fully expanded leaves per plant were dipped into 0.1% Silwet L-77 solution freshly made with ddH2O for a few seconds, and allowed to dry. About 30 minutes later, 20 microliters of polynucleotide solution, was applied to each of the two pre-treated leaves. For PDS, each of 5 plants received 25 nanomoles of the PDS anti-sense polynucleotide (SEQ ID NO:34); for EPSPS, each of 5 plants received 50 nanomoles of each EPSPS anti-sense polynucleotide (SEQ ID NOS:279-284); and for RuBisCO, each of 5 plants received 50 nanomoles of each RuBisCO anti-sense polynucleotide (SEQ ID NOS:288-295). Paired control plants were treated with buffer (0.01% (v/v) Silwet L-77 and 2% (w/v) ammonium sulfate in 5 millimolar sodium phosphate, pH 6.8)."}},
  "note": "{AF488} = Alexa Fluor 488 fluorescent label (Invitrogen)",
  "data": [
    {"molecule": "HL290: SEQ ID NO:58, anti-sense ssDNA, lettuce PDS (antisense CAAATAAATTTTGTACATTTGGGTAAGCTCCAA; DNA, backbone not given here)", "values": [
      {"measurement": "systemic silencing (FIG. 29B)", "setting": "[1]", "value": "systemic silencing evidenced by bleaching"}
    ]},
    {"molecule": "HL288: SEQ ID NO:56, anti-sense ssDNA, lettuce PDS (antisense CCATTCAATGGTGCAGGTAAAAC; DNA, backbone not given here)", "values": [
      {"measurement": "systemic silencing (FIG. 29B)", "setting": "[1]", "value": "systemic silencing evidenced by bleaching"}
    ]},
    {"molecule": "Anti-sense_PO1: SEQ ID NO:8, ssDNA anti-sense to Amaranthus palmeri EPSPS (antisense ACCCTCCACGACTGCCCTTT; listed as DNA, chemistry not fully specified; listed as Amaranthus palmeri)", "values": [
      {"measurement": "increasing glyphosate efficacy, shikimate accumulation", "setting": "endogenous EPSPS", "value": "increased accumulation of shikimate"},
      {"measurement": "suppressing levels of EPSPS mRNA and protein", "setting": "endogenous EPSPS", "value": "more efficacious"}
    ]},
    {"molecule": "PDS ssDNA 22-mer: SEQ ID NO:39, GGCAGTACAATTAAAGGAGATG, positions 1099-1120 of SEQ ID NO:2 (DNA, backbone not given here; listed as Nicotiana benthamiana)", "values": [
      {"measurement": "amount of seed produced per fruit", "setting": "[2]; compared to control plants", "value": "reduced amount of seed produced per fruit"},
      {"measurement": "bleaching of apical leaves, stems, and flowers", "setting": "[2]; leaves conditioned with 0.1% Silwet L-77, 1 nanomole per plant", "value": "all displayed bleaching"},
      {"measurement": "germination rate", "setting": "[2]; seeds from treated plants, control 95 out of 100", "value": "4 out of 100"},
      {"measurement": "seed weight", "setting": "[2]; seeds from treated plants, identical to control", "value": "about 11 mg per 100 seeds"},
      {"measurement": "bleaching of apical leaves, stems, and flowers", "setting": "[2]; without conditioning by Silwet L-77, 1 nanomole by infiltration or hand application of drops", "value": "displayed bleaching of apical leaves, stems, and flowers"}
    ]},
    {"molecule": "Anti-sense_PO1_488: SEQ ID NO:15, 5′-labelled with Alexa Fluor 488 (antisense ACCCTCCACGACTGCCCTTT; DNA, 5' {AF488}, backbone not given here; listed as Amaranthus palmeri)", "values": [
      {"measurement": "distribution in leaf", "setting": "[3]; at 24 h and 48 h", "value": "accumulate at the leaf edge"},
      {"measurement": "vascular uptake into leaf", "setting": "[3]; petiole in 200 mM sucrose, imaged 4 h up to 48 h", "value": "slightly time-dependent vascular uptake"},
      {"measurement": "release from vascular tissue into cells, as early as (time after treatment)", "setting": "[3]; petiole uptake", "value": 8, "unit": "h"}
    ]},
    {"molecule": "HL289: SEQ ID NO:57, anti-sense ssDNA, lettuce PDS (antisense CATAGAATGCTCCTTCCACTG; DNA, backbone not given here)", "values": [
      {"measurement": "systemic silencing (FIG. 29B)", "setting": "[1]", "value": "systemic silencing evidenced by bleaching"}
    ]},
    {"molecule": "#6: Anti-sense_PO1, PO2, PO3, PO4 (SEQ ID NOs: 8, 9, 10, 11) (nucleic acid, listed as Amaranthus palmeri, DNA, backbone not given here) antisense 1: ACCCTCCACGACTGCCCTTT antisense 2: GTTTCCTTCACTCTCCAGC antisense 3: GTAGCTTGAGCCATTATTGT antisense 4: GTTGATGGTAGTAGCTTGAG", "values": [
      {"measurement": "increasing glyphosate efficacy, shikimate accumulation", "setting": "endogenous EPSPS", "value": "increased accumulation of shikimate"},
      {"measurement": "suppressing levels of EPSPS mRNA and protein", "setting": "endogenous EPSPS", "value": "more efficacious"}
    ]},
    {"molecule": "201 nucleotide dsRNA polynucleotide: dsRNA to SEQ ID NO:60, positions 1724-1923 of tomato PDS mRNA (nucleic acid, complementary strand) sense: TCGCAGCGACTCAGAAATTATTGATGCAACGATGAAGGAACTAGCAACGCTTTTTCCTGATGAAATTTCAGCAGATCAAAGCAAAGCAAAAATATTGAAGTACCATGTTGTCAAAACTCCGAGGTCTGTTTATAAAACTGTGCCAGGTTGTGAACCCTGTCGGCCTTTACAAAGATCCCCAATAGAGGGGTTTTATTTAG", "values": [
      {"measurement": "plant growth compared to control plants", "setting": "[4]", "value": "severely stunted"},
      {"measurement": "systemic silencing of PDS (FIG. 30)", "setting": "[4]; 30 days after topical treatment", "value": "bleaching"}
    ]},
    {"molecule": "EPSPS anti-sense polynucleotides: SEQ ID NOS:279-284, anti-sense to Nicotiana benthamiana EPSPS (nucleic acid, listed as DNA, chemistry not given here) antisense 1: CTGTGATCATCATATGTATCA antisense 2: CCTTAACTCTCCAGCTAGCAA antisense 3: CAGCCCGCAAATGTTTCATTC antisense 4: GCCGTCAATGGCCGCATTGCT antisense 5: TCCTTCCCTCAGAAAGGGCAG antisense 6: TTGCCTCATGCTGCTAATCTG", "values": [
      {"measurement": "plant height (FIG. 36)", "setting": "[5]; 12 days (PDS and EPSPS) or 10 days (RuBisCO) after treatment", "value": "severe stunting"},
      {"measurement": "other phenotype", "setting": "[5]", "value": "severe damage to the meristem and stem tissues"}
    ]}
  ]
}
